Data as given in paper PMC3188543, “The Anti-interferon Activity of Conserved Viral dUTPase ORF54 is Essential for an Effective MHV-68 Infection” (PLoS Pathogens, 2011).

Target: T1, murine cellular dUTPase (Mus musculus, UniProt Q9CQ43)
T1 construct: gene Dut; FLAG-tagged, expressed in 293T, anti-FLAG immunopurified, 3xFLAG peptide eluted; tag kept; homotrimer
T1 sequence (Q9CQ43 1-162): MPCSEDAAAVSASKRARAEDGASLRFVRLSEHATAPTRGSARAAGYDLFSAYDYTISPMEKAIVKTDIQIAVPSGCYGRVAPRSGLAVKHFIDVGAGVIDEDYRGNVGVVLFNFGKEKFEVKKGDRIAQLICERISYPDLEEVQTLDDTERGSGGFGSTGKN
Assay: dUTP hydrolysis, read out by PCR with remaining dUTP in place of dTTP (gel)
Assay type: biochemical
Settings: pH 7.5, 37 C, MgCl2, DTT, BSA; 5 mM dUTP stock; 0-25 h

`O=c1ccn([C@H]2C[C@H](O)[C@@H](COP(=O)(O)OP(=O)(O)OP(=O)(O)O)O2)c(=O)[nH]1` [dUTP] was tested, and the “dUTP hydrolysis, read out by PCR with remaining dUTP in place of dTTP (gel)” value was “used to determine the presence of functional dUTP after incubation”.
